According to PubChem BioAssay (NCI):
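Cells were grown in 96-well plates and exposed to each compound for 48 hours at five concentrations; endpoints were interpolated linearly between bracketing concentrations, or set to the highest concentration if not reached. At the TGI there is no net growth.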

Key:
Assay in all cases: DTP human tumour cell line panel, 48 h
IGROV1 ovarian = tested on: IGROV1 ovarian
CAKI-1 renal = tested on: CAKI-1 renal
LOX IMVI melanoma = tested on: LOX IMVI melanoma
CCRF-CEM leukemia = tested on: CCRF-CEM leukemia
SNB-19 CNS = tested on: SNB-19 CNS
786-0 renal = tested on: 786-0 renal
SK-MEL-28 melanoma = tested on: SK-MEL-28 melanoma
UO-31 renal = tested on: UO-31 renal
M14 melanoma = tested on: M14 melanoma
RXF 393 renal = tested on: RXF 393 renal
OVCAR-8 ovarian = tested on: OVCAR-8 ovarian
BT-549 breast = tested on: BT-549 breast
A498 renal = tested on: A498 renal
NCI-H522 lung = tested on: NCI-H522 lung
RPMI-8226 leukemia = tested on: RPMI-8226 leukemia
NCI-H460 lung = tested on: NCI-H460 lung
MDA-MB-435 = tested on: MDA-MB-435
MALME-3M melanoma = tested on: MALME-3M melanoma
KM12 colon = tested on: KM12 colon
HOP-92 NSCLC = tested on: HOP-92 NSCLC
SN12C renal = tested on: SN12C renal
OVCAR-4 ovarian = tested on: OVCAR-4 ovarian
A549 NSCLC = tested on: A549 NSCLC
UACC-62 melanoma = tested on: UACC-62 melanoma
SF-295 CNS = tested on: SF-295 CNS
ACHN renal = tested on: ACHN renal
MOLT-4 leukemia = tested on: MOLT-4 leukemia
SW-620 colon = tested on: SW-620 colon
PC-3 prostate = tested on: PC-3 prostate
SR leukemia = tested on: SR leukemia
SK-OV-3 ovarian = tested on: SK-OV-3 ovarian
COLO 205 colon = tested on: COLO 205 colon
SF-268 CNS = tested on: SF-268 CNS
OVCAR-5 ovarian = tested on: OVCAR-5 ovarian
NCI-H226 lung = tested on: NCI-H226 lung
HS 578T breast = tested on: HS 578T breast
MDA-MB-231 breast = tested on: MDA-MB-231 breast
OVCAR-3 ovarian = tested on: OVCAR-3 ovarian
K-562 leukemia = tested on: K-562 leukemia
HCT-15 colon = tested on: HCT-15 colon
T-47D breast = tested on: T-47D breast
EKVX NSCLC = tested on: EKVX NSCLC
HCT-116 colon = tested on: HCT-116 colon
HT29 colon = tested on: HT29 colon
NCI/ADR-RES ovarian = tested on: NCI/ADR-RES ovarian
TK-10 renal = tested on: TK-10 renal
SK-MEL-2 melanoma = tested on: SK-MEL-2 melanoma
NCI-H23 lung = tested on: NCI-H23 lung
HL-60(TB) leukemia = tested on: HL-60(TB) leukemia
SK-MEL-5 melanoma = tested on: SK-MEL-5 melanoma
U251 CNS = tested on: U251 CNS
DU-145 prostate = tested on: DU-145 prostate
SNB-75 CNS = tested on: SNB-75 CNS
SF-539 CNS = tested on: SF-539 CNS
UACC-257 melanoma = tested on: UACC-257 melanoma
MCF7 breast = tested on: MCF7 breast
HCC-2998 colon = tested on: HCC-2998 colon
MDA-N = tested on: MDA-N
HOP-62 NSCLC = tested on: HOP-62 NSCLC
M19-MEL melanoma = tested on: M19-MEL melanoma
KM20L2 colon = tested on: KM20L2 colon
DMS 273 small cell lung = tested on: DMS 273 small cell lung
DLD-1 colon = tested on: DLD-1 colon
DMS 114 small cell lung = tested on: DMS 114 small cell lung
LXFL 529 NSCLC = tested on: LXFL 529 NSCLC

c1ccc2sc(C3(N4CCCCC4)CCCCCC3)cc2c1
TGI (IGROV1 ovarian): 52.7 µM | TGI (CAKI-1 renal): 64.2 µM | TGI (LOX IMVI melanoma): 34.6 µM | TGI (CCRF-CEM leukemia): 26.1 µM | TGI (SNB-19 CNS): 39.4 µM | TGI (786-0 renal): 47.4 µM | TGI (SK-MEL-28 melanoma): 21.6 µM | TGI (UO-31 renal): 60.8 µM | TGI (M14 melanoma): 67.2 µM | TGI (RXF 393 renal): 28.6 µM | TGI (OVCAR-8 ovarian): 72.5 µM | TGI (BT-549 breast): 52.7 µM | TGI (A498 renal): 33.7 µM | TGI (NCI-H522 lung): 32.8 µM | TGI (RPMI-8226 leukemia): 28.7 µM | TGI (NCI-H460 lung): 38.6 µM | TGI (MDA-MB-435): 55.2 µM | TGI (MALME-3M melanoma): 53.9 µM | TGI (KM12 colon): 31.2 µM | TGI (HOP-92 NSCLC): 51.8 µM | TGI (SN12C renal): 41.4 µM | TGI (OVCAR-4 ovarian): 76 µM | TGI (A549 NSCLC): 80.9 µM | TGI (UACC-62 melanoma): 80.4 µM | TGI (SF-295 CNS): 49.1 µM | TGI (ACHN renal): 35 µM | TGI (MOLT-4 leukemia): 29.6 µM | TGI (SW-620 colon): 25 µM | TGI (PC-3 prostate): 29.3 µM | TGI (SR leukemia): 36.7 µM | TGI (SK-OV-3 ovarian): 66.7 µM | TGI (COLO 205 colon): 31.8 µM | TGI (SF-268 CNS): 46.7 µM | TGI (OVCAR-5 ovarian): 36.7 µM | TGI (NCI-H226 lung): 33.7 µM | TGI (HS 578T breast): 42 µM | TGI (MDA-MB-231 breast): 42.1 µM | TGI (OVCAR-3 ovarian): 37.2 µM | TGI (K-562 leukemia): 31 µM | TGI (HCT-15 colon): 34.8 µM | TGI (T-47D breast): 31.6 µM | TGI (EKVX NSCLC): 47.2 µM | TGI (HCT-116 colon): 32.8 µM | TGI (HT29 colon): 31.7 µM | TGI (NCI/ADR-RES ovarian): 45.8 µM | TGI (TK-10 renal): 49.2 µM | TGI (SK-MEL-2 melanoma): 68.4 µM | TGI (NCI-H23 lung): 43.3 µM | TGI (HL-60(TB) leukemia): 11.4 µM | TGI (SK-MEL-5 melanoma): 31.3 µM | TGI (U251 CNS): 31 µM | TGI (DU-145 prostate): > 100 µM | TGI (SNB-75 CNS): 42 µM | TGI (SF-539 CNS): 38.2 µM | TGI (UACC-257 melanoma): 34.9 µM | TGI (MCF7 breast): 31.9 µM | TGI (HCC-2998 colon): 27.9 µM | TGI (MDA-N): > 100 µM | TGI (HOP-62 NSCLC): 60.9 µM

COc1c2c(cc3c(CCc4ccccc4)cc(=O)oc13)CCC(C)(C)O2
TGI (IGROV1 ovarian): > 100 µM | TGI (LOX IMVI melanoma): > 100 µM | TGI (CCRF-CEM leukemia): > 100 µM | TGI (M19-MEL melanoma): > 100 µM | TGI (SK-MEL-28 melanoma): > 100 µM | TGI (UO-31 renal): > 100 µM | TGI (M14 melanoma): > 100 µM | TGI (RXF 393 renal): > 100 µM | TGI (OVCAR-8 ovarian): > 100 µM | TGI (KM20L2 colon): > 100 µM | TGI (DMS 273 small cell lung): > 100 µM | TGI (RPMI-8226 leukemia): > 100 µM | TGI (NCI-H460 lung): > 100 µM | TGI (MALME-3M melanoma): > 100 µM | TGI (KM12 colon): > 100 µM | TGI (DLD-1 colon): > 100 µM | TGI (HOP-92 NSCLC): > 100 µM | TGI (SN12C renal): > 100 µM | TGI (UACC-62 melanoma): > 100 µM | TGI (SF-295 CNS): > 100 µM | TGI (ACHN renal): > 100 µM | TGI (MOLT-4 leukemia): > 100 µM | TGI (SW-620 colon): > 100 µM | TGI (DMS 114 small cell lung): > 100 µM | TGI (SR leukemia): > 100 µM | TGI (SK-OV-3 ovarian): > 100 µM | TGI (COLO 205 colon): > 100 µM | TGI (SF-268 CNS): > 100 µM | TGI (OVCAR-5 ovarian): > 100 µM | TGI (NCI-H226 lung): > 100 µM | TGI (LXFL 529 NSCLC): > 100 µM | TGI (OVCAR-3 ovarian): > 100 µM | TGI (K-562 leukemia): > 100 µM | TGI (HCT-15 colon): > 100 µM | TGI (EKVX NSCLC): > 100 µM | TGI (HCT-116 colon): > 100 µM | TGI (HT29 colon): > 100 µM | TGI (TK-10 renal): > 100 µM | TGI (SK-MEL-2 melanoma): > 100 µM | TGI (NCI-H23 lung): > 100 µM | TGI (HL-60(TB) leukemia): > 100 µM | TGI (SK-MEL-5 melanoma): > 100 µM | TGI (U251 CNS): > 100 µM | TGI (SNB-75 CNS): > 100 µM | TGI (UACC-257 melanoma): > 100 µM | TGI (HCC-2998 colon): > 100 µM | TGI (HOP-62 NSCLC): > 100 µM
